# pIC50: −log10 of the molar value.
# What was measured:
# Assay type in all cases: cell-based
# [1] = test system: OCIAML2 (AML); assay: Oncotest inhibition of viability, OCIAML2; conditions: Homo sapiens, OCI-AML2; AML cell line OCIAML2; read-out: IC50 range
# [2] = test system: HUT78 (NHL); assay: Oncotest inhibition of viability, HUT78; conditions: Homo sapiens; NHL cell line HUT78; read-out: IC50 range
# [3] = test system: L363 (MM); assay: Oncotest inhibition of viability, L363; conditions: Homo sapiens, L-363; MM cell line L363; read-out: IC50 range
# [4] = test system: AML cell line THP-1; assay: CellTiter-Blue proliferation assay, THP-1; conditions: Homo sapiens, geometric mean relative IC50, 72 hours, read-out: IC50 range for cell line THP-1
# Experimental: (§1) Aim of this study was to evaluate compounds of Example 1, 1/1, 2/2, 2/5 and 2/6 in a proliferation assays. The 5 test compounds were tested in a CellTiter-Blue® based proliferation assay in three AML cell lines (HL-60, THP-1 and MOLM-13). The compounds were tested at 10 concentrations in half-log increments (highest concentration 30 μM or 100 μM) in duplicates. The incubation period with the applied compounds was fixed to 72 hours.
# [5] = Viability and differentiation in different solid cancer cell lines; conditions: range over HEK293, A2780, MT3, MCF7, NCIH460, A-375, HCT15, HT1080
# [6] = test system: U937 (NHL); assay: Oncotest inhibition of viability, U937; conditions: Homo sapiens, U-937; NHL cell line U937; read-out: IC50 range
# [7] = test system: JURKAT (ALL); assay: Oncotest inhibition of viability, JURKAT; conditions: Homo sapiens; ALL cell line JURKAT; read-out: IC50 range
# [8] = test system: AML cell line HL-60; assay: CellTiter-Blue proliferation assay, HL-60; conditions: Homo sapiens, geometric mean relative IC50, 72 hours, read-out: IC50 range for cell line HL-60
# Experimental: as §1
# [9] = test system: MYLA (NHL); assay: Oncotest inhibition of viability, MYLA; conditions: NHL cell line MYLA; read-out: IC50 range
# [10] = test system: KG1 (AML); assay: Oncotest inhibition of viability, KG1; conditions: AML cell line KG1; read-out: IC50 range
# [11] = test system: RAJI (NHL); assay: Oncotest inhibition of viability, RAJI; conditions: Homo sapiens; NHL cell line RAJI; read-out: IC50 range
# [12] = test system: MV411 (AML); assay: Oncotest inhibition of viability, MV411; conditions: Homo sapiens, MV4-11; AML cell line MV411; read-out: IC50 range
# [13] = test system: MOLT4 (ALL); assay: Oncotest inhibition of viability, MOLT4; conditions: Homo sapiens, MOLT-4; ALL cell line MOLT4; read-out: IC50 range
# [14] = test system: 24 different hematological cell lines; assay: Inhibition of viability in 24 different hematological cell lines (mean); conditions: mean over 24 different hematological cell lines; read-out: geometrical mean IC50, inhibition of viability
# [15] = test system: NOMO1 (AML); assay: Oncotest inhibition of viability, NOMO1; conditions: Homo sapiens, NOMO-1; AML cell line NOMO1; read-out: IC50 range
# [16] = test system: MEG01 (CML); assay: Oncotest inhibition of viability, MEG01; conditions: Homo sapiens, MEG-01; CML cell line MEG01; read-out: IC50 range
# [17] = test system: more than 75 representative cancer cell lines; assay: Oncolead profiling in a panel of more than 75 cancer cell lines; conditions: FIG. 1 and FIG. 2
# Experimental: The compound of Example 1 and Example 1/1 was tested in vitro in more than 75 representative cancer cell lines at Oncolead (www.oncolead.com) according their standard procedure. The obtained data is summarised in FIG. 1 (Example 1) and FIG. 2 (Example 1/1).
# [18] = test system: JURLMK1 (CML); assay: Oncotest inhibition of viability, JURLMK1; conditions: CML cell line JURLMK1; read-out: IC50 range
# [19] = test system: IM9 (MM); assay: Oncotest inhibition of viability, IM9; conditions: MM cell line IM9; read-out: IC50 range
# [20] = test system: K562 (CML); assay: Oncotest inhibition of viability, K562; conditions: Homo sapiens; CML cell line K562; read-out: IC50 range
# [21] = test system: NCIH929 (MM); assay: Oncotest inhibition of viability, NCIH929; conditions: Homo sapiens, NCI-H929; MM cell line NCIH929; read-out: IC50 range
# [22] = test system: CCRFCEM/VCR (ALL); assay: Oncotest inhibition of viability, CCRFCEM/VCR; conditions: Homo sapiens, CCRF-CEM; ALL cell line CCRFCEM/VCR; read-out: IC50 range
# [23] = test system: HL60 (AML); assay: Oncotest inhibition of viability, HL60; conditions: Homo sapiens, HL-60; AML cell line HL60; read-out: IC50 range
# [24] = test system: NKX3.1 mRNA; assay: Expression of AR target genes (qRT-PCR) in 22Rv1: NKX3.1; conditions: Homo sapiens; 22Rv1, 1 μM, 48h; relative to vehicle control (DMSO)
# Experimental: (§2) The prostate cancer cell line 22Rv1 was treated for 48h with 1 μM Example compound 1, 1/1, 2/1, 2/2, 2/3, 2/4, 2/5, 2/6, 2/7, 2/8, 2/9 and 2/10 and reference compounds SR2211 and XY018. RNA was extracted using the RNA isolation kit XS (Macherey-Nagel) and following the manufacture's manual. RNA quantity was measured with the Nanodrop before reverse transcription using Superscript II (Invitrogen #100004925). For the quantitative real-time PCR with SYBR-Green (Qiagen #204074), the following primers were used:
# (§3) qRT-PCR was performed using SYBR-Green (Qiagen #204074) reagents in a PCR cycler (Gorbett Research) Rotor Gene RG3000 with the following program: denaturation for 5′ at 95° C.; 40 cycles of 20″ at 95° C. and 15″ at 60° C.″ and at the end of the last cycle, the melting temperature of the products was determined by gradually increasing from 60° C. to 99° C. CT values from all samples were normalized to reference (housekeeping) genes using the mean CT value of the GAPDH and YWHAZ (reference genes). Next the values are put relative to the untreated control (vehicle/DMSO).
# [25] = test system: FKBP5 mRNA; assay: Expression of AR target genes (qRT-PCR) in 22Rv1: FKBP5; conditions: Homo sapiens; 22Rv1, 1 μM, 48h; relative to vehicle control (DMSO)
# Experimental: as §2, §3
smiles,measurement,setting,value
"COC(=O)c1c(-c2c(F)cccc2Cl)noc1-c1cnn(-c2cccc(Cl)c2)c1C(F)(F)F [Example 1, Methyl 3-(2-chloro-6-fluorophenyl)-5-(1-(3-chlorophenyl)-5-(trifluoromethyl)-1H-pyrazol-4-yl)isoxazole-4-carboxylate]",pIC50,[1],7.00 to 8.00
same,pIC50,[2],> 8.00
same,pIC50,[3],> 8.00
same,pIC50,[4],7.00 to 8.00
same,pIC50,[5],7.60 to 9.00
same,pIC50,[6],7.00 to 8.00
same,pIC50,[7],> 8.00
same,pIC50,[8],> 8.00
same,pIC50,[9],6.00 to 7.00
same,pIC50,[10],> 8.00
same,pIC50,[11],> 8.00
same,pIC50,[12],> 8.00
same,pIC50,[13],> 8.00
same,pIC50,[14],> 7.60
same,pIC50,[15],6.00 to 7.00
same,pIC50,[16],≤ 6.00
same,"in vitro anticancer activity (Z-score panel, words)",[17],exhibits an in vitro anticancer activity towards a broad spectrum of therapeutic cancer indication
same,pIC50,[18],> 8.00
same,pIC50,[19],> 8.00
same,pIC50,[20],≤ 6.00
same,pIC50,[21],> 8.00
same,pIC50,[22],7.00 to 8.00
same,pIC50,[23],> 8.00
CC(C)(O)CCn1ncc(-c2onc(-c3c(F)cccc3Cl)c2-c2ncccn2)c1C(F)(F)F [2/8],mrna remaining at 1 µM,[24],29.3%
same,mrna remaining at 1 µM,[25],38.1%
Fc1cccc(Cl)c1-c1noc(-c2cnn(-c3cccc(Cl)c3)c2C(F)(F)F)c1-c1nccs1 [Example 1/1],pIC50,[4],> 8.00
same,pIC50,[5],7.60 to 9.00
same,pIC50,[8],> 8.00
same,"in vitro anticancer activity (Z-score panel, words)",[17],exhibits an in vitro anticancer activity towards a broad spectrum of therapeutic cancer indication
